Data: patent US6482921B1, “Uridyl peptide antibiotic (UPA) derivatives, their synthesis and use” (Essential Therapeutics, Inc., priority 1999, dated 2002)
≈ marks a conversion by molar mass, not a printed value.

Columns and labels:
[1] = test system: Pseudomonas aeruginosa PAM 1020; assay: MIC broth microdilution, P. aeruginosa PAM 1020 (wild type); format: cell-based; conditions: for MIC (μg/ml) Broth microdilution: P. aeruginosa PAM 1020
[2] = test system: Pseudomonas aeruginosa PAM 1154; assay: MIC broth microdilution, P. aeruginosa PAM 1154 (OprM::Hg); format: cell-based; conditions: for MIC (μg/ml) Broth microdilution: P. aeruginosa PAM 1154 OprM::Hg
[3] = test system: Pseudomonas aeruginosa PAM 1135; assay: MIC broth microdilution, P. aeruginosa PAM 1135 (high level UPA resistance); format: cell-based; conditions: for MIC (μg/ml) Broth microdilution: P. aeruginosa PAM 1135 UPA1^r
Escherichia Coli MC 4100 = assay: MIC broth microdilution, E. coli MC 4100 (wild type); format: cell-based; conditions: for MIC (μg/ml) Broth microdilution: E. coli MC 4100
[4] = test system: Escherichia Coli MC 4100 AcrAB; assay: MIC broth microdilution, E. coli MC 4100 AcrAB (ΔAcrAB); format: cell-based; conditions: for MIC (μg/ml) Broth microdilution: E. coli AcrAB
[5] = test system: Escherichia Coli MC 4100 AcrAB UPA3r; assay: MIC broth microdilution, E. coli MC 4100 AcrAB UPA3r (ΔAcrAB, UPA resistant); format: cell-based; conditions: for MIC (μg/ml) Broth microdilution: E. coli AcrAB UPA3^r
[6] = test system: Staphylococcus aureus ATCC 29213; assay: MIC broth microdilution, S. aureus ATCC 29213 (wild type); format: cell-based; conditions: for MIC (μg/ml) Broth microdilution: S. aureus ATCC 29213
[7] = test system: Staphylococcus aureus 8325-4; assay: MIC broth microdilution, S. aureus 8325-4 (wild type); format: cell-based; conditions: for MIC (μg/ml) Broth microdilution: S. aureus 8325-4
bacteria = assay: Antibacterial activity, stated in words; format: cell-based
[8] = test system: Pseudomonas aeruginosa PAM 1323; assay: MIC broth microdilution, P. aeruginosa PAM 1323 (medium level UPA resistance); format: cell-based
[9] = test system: Pasteurella multocida pm002; assay: MIC broth microdilution, P. multocida pm002 (wild type); format: cell-based
[10] = test system: Haemophilus influenzae hf032; assay: MIC broth microdilution, H. influenzae hf032; format: cell-based; conditions: strain hf032, Haemophilus test medium
Protocol: (§1) In a second panel, Table 5, compounds of this invention were tested for their antimicrobial activity against the bacterial strains H. influenzae hf032 and S. pneumoniae ATCC 49629.
(§2) As above, a broth microdilution assay was used but the culture media were varied according to the specific growth requirements of each bacteria according to the recommendations of the NCCLS. For instance, susceptibility testing for H, influenzae was performed using Haemophilus test medium (HTM-Remel, cat. #20-042). For S. pneumoniae, cation adjusted MHB (CAMHB) containing 4% lysed horse blood was used. MICs were determined as described above.

[11] = test system: Streptococcus pneumoniae ATCC 49619; assay: MIC broth microdilution, S. pneumoniae ATCC 49619; format: cell-based; conditions: ATCC 49619, CAMHB containing 4% lysed horse blood
Protocol: as §1, §2

[12] = test system: Mycobacterium tuberculosis H37Rv; assay: MIC agar dilution, M. tuberculosis H37Rv; format: cell-based
[13] = test system: Mycobacterium tuberculosis TN913; assay: MIC agar dilution, M. tuberculosis TN913; format: cell-based
[14] = test system: Mycobacterium fortuitum ATCC 6841; assay: MIC broth microdilution, M. fortuitum ATCC 6841; conditions: 72 hours at 35° C., CAMHB
[15] = test system: Mycobacterium smegmatis ATCC 19420; assay: MIC broth microdilution, M. smegmatis ATCC 19420; conditions: 72 hours at 35° C., CAMHB
E. coli translocase = E. coli translocase (Escherichia coli, UniProt P0A6W3)
[16] = target: bacterial translocase I (phospho-N-acetylmuramyl-pentapeptide translocase) (Escherichia coli, UniProt P0A6W3); conditions: background statement; cited from earlier work
[17] = test system: mammalian enzymes that catalyze the formation of lipid-linked saccharides; conditions: background statement; cited from earlier work

Chain of E. coli translocase (P0A6W3 whole entry): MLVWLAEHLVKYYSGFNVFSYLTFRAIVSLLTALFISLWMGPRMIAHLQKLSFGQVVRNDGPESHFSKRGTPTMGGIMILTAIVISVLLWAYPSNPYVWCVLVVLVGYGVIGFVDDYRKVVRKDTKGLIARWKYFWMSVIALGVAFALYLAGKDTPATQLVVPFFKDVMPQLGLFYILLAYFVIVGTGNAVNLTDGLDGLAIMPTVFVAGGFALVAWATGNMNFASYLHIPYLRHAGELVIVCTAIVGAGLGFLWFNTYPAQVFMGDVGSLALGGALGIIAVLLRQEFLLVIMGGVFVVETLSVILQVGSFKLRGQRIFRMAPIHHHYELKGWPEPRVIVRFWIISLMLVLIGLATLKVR
Chain of bacterial translocase I (phospho-N-acetylmuramyl-pentapeptide translocase) (P0A6W3 whole entry): as above

| Compound | antibacterial / biological activity (in words) (bacteria) | MIC (μg/ml) Broth microdilution [1] | MIC (μg/ml) Broth microdilution [2] | MIC (μg/ml) Broth microdilution [3] | MIC (μg/ml) Broth microdilution [8] | MIC (μg/ml) Broth microdilution (Escherichia Coli MC 4100) | MIC (μg/ml) Broth microdilution [4] | MIC (μg/ml) Broth microdilution [5] | MIC (μg/ml) Broth microdilution [6] | MIC (μg/ml) Broth microdilution [7] | MIC (μg/ml) Broth microdilution [9] | MIC H37RV (SENSITIVE) [12] | MIC TN913 (SENSITIVE) [13] | MIC Broth microdilution M. fortuitum ATCC 6841 [14] | MIC Broth microdilution M. smegmatis ATCC19420 [15] | also measured |
| --- | --- | --- | --- | --- | --- | --- | --- | --- | --- | --- | --- | --- | --- | --- | --- | --- |
| C[C@H](N)C(=O)N(C)[C@@H](C)[C@H](NC(=O)[C@H](C)NC(=O)N[C@@H](Cc1c[nH]c2ccccc12)C(=O)O)C(=O)NC[C@H]1C[C@@H](O)[C@H](n2ccc(=O)[nH]c2=O)O1 [Compound 34] | comparable biological activity to dihydropacidamycin D |  |  |  |  |  |  |  |  |  |  |  |  |  |  | MIC ([1]; Pseudomonas aeruginosa, PAM1020, read-out: MIC (μg/ml) Broth microdilution): 64 µg/mL (≈ 89.7 µM); MIC ([2]; Pseudomonas aeruginosa, PAM1154, read-out: MIC (μg/ml) Broth microdilution): 4 µg/mL (≈ 5.6 µM); MIC ([3]; Pseudomonas aeruginosa, PAM1135, read-out: MIC (μg/ml) Broth microdilution): > 512 µg/mL; MIC (Escherichia Coli MC 4100; Escherichia coli, COLIMC4100, read-out: MIC (μg/ml) Broth microdilution): 128 µg/mL (≈ 179 µM); MIC ([4]; Escherichia coli, COLIMC4100ACRAB, read-out: MIC (μg/ml) Broth microdilution): 2 µg/mL (≈ 2.8 µM); MIC ([5]; Escherichia coli, read-out: MIC (μg/ml) Broth microdilution): 16 µg/mL (≈ 22.4 µM); MIC ([6]; Staphylococcus aureus, ATCC29213, read-out: MIC (μg/ml) Broth microdilution): 512 µg/mL (≈ 717 µM); MIC ([7]; Staphylococcus aureus, 83254, read-out: MIC (μg/ml) Broth microdilution): > 512 µg/mL |
| CSCCC(NC(=O)NC(Cc1ccc(O)cc1)C(=O)O)C(=O)NC(C(=O)NCC1CC(O)C(n2ccc(=O)[nH]c2=O)O1)C(C)N(C)C(=O)C(C)N [Compound 115, 1-[5′[(2S,3S)-N^3-L-Alanyl-N^2-[N-[[(1S)-1-carboxy-4-hydroxyphenethyl)-carbamoyl]-L-methionyl]-N^3-methyl-2,3-diaminobutyramido]-3′,5′-dideoxy-α-L-arabinofuranosyl]uracil] |  | 4 µg/mL (≈ 5.33 µM) | 2 µg/mL (≈ 2.66 µM) | >512 µg/mL | 256 µg/mL (≈ 341 µM) | >512 µg/mL | 8 µg/mL (≈ 10.7 µM) | 32 µg/mL (≈ 42.6 µM) | >512 µg/mL | >512 µg/mL | 128 µg/mL (≈ 170 µM) | >30 mg/L | >30 mg/L |  |  | MIC Broth microdilution H. influenzae [10]: 16 mg/L (≈ 21.3 µM); MIC Broth microdilution S. pneumoniae [11]: >512 mg/L |
| CC(N)C(=O)N(C)C(C)C(NC(=O)C(Cc1ccc(-c2ccccc2)cc1)NC(=O)NC(Cc1c[nH]c2ccccc12)C(=O)O)C(=O)NCC1CC(O)C(n2ccc(=O)[nH]c2=O)O1 [Compound 155, 1-[5′-[(2S,3S)-N^3-L-Alanyl-N^2-[N-[[(1S)-1-carboxy-2-indol-3-ylethyl)carbamoyl]-L-4-biphenylalanyl]-N^3-methyl-2,3-diaminobutyramidol-3′,5′-dideoxy-α-L-arabinofuranosyl]uracil] |  | 256 µg/mL (≈ 296 µM) | 64 µg/mL (≈ 73.9 µM) | 512 µg/mL (≈ 591 µM) | 256 µg/mL (≈ 296 µM) | 512 µg/mL (≈ 591 µM) | 8 µg/mL (≈ 9.24 µM) | 512 µg/mL (≈ 591 µM) | >512 µg/mL | 512 µg/mL (≈ 591 µM) | 32 µg/mL (≈ 37 µM) | 10 mg/L (≈ 11.5 µM) | 10 mg/L (≈ 11.5 µM) | 32 mg/L (≈ 37 µM) | 4 mg/L (≈ 4.62 µM) |  |
| CC(N)C(=O)N(C)C(C)C(NC(=O)C(Cc1ccc(F)cc1)NC(=O)NC(Cc1c[nH]c2ccccc12)C(=O)O)C(=O)NCC1CC(O)C(n2ccc(=O)[nH]c2=O)O1 [Compound 158, 1-[5′-[(2S,3S)-N^3-L-Alanyl-N^2-[N-[[(1S)-1-carboxy-2-indol-3-ylethyl]carbamoyl]-L-4-fluorophenylalanyl]-N^3-methyl-2,3-diaminobutyramidol-3′,5′-dideoxy-α-L-arabinofuranosyl]uracil] |  | 64 µg/mL (≈ 79.2 µM) | 8 µg/mL (≈ 9.9 µM) | 256 µg/mL (≈ 317 µM) | 256 µg/mL (≈ 317 µM) | 512 µg/mL (≈ 634 µM) | <1 µg/mL | 32 µg/mL (≈ 39.6 µM) | 512 µg/mL (≈ 634 µM) | 512 µg/mL (≈ 634 µM) | 64 µg/mL (≈ 79.2 µM) | 10 mg/L (≈ 12.4 µM) | 10 mg/L (≈ 12.4 µM) | 32 mg/L (≈ 39.6 µM) | 1 mg/L (≈ 1.24 µM) |  |
| CC(C)CC(N)C(=O)N(C)C(C)C(NC(=O)C(Cc1ccccc1)NC(=O)NC(Cc1c[nH]c2ccccc12)C(=O)O)C(=O)NCC1CC(O)C(n2ccc(=O)[nH]c2=O)O1 [Compound 159, 1-[5′-[(2S,3S)-N^2-[N-[[(1S)-1-Carboxy-2-indol-3-ylethyl]carbamoyl]-L-phenylalanyl]l-N^3-L-leucyl-N^3-methyl-2,3-diaminobutyramido]-3′,5′-dideoxy-α-L-arabinofuranosyl]uracil] |  | 128 µg/mL (≈ 154 µM) | 8 µg/mL (≈ 9.62 µM) | 256 µg/mL (≈ 308 µM) | 256 µg/mL (≈ 308 µM) | >512 µg/mL | 2 µg/mL (≈ 2.4 µM) | 64 µg/mL (≈ 76.9 µM) | >512 µg/mL | >512 µg/mL | 128 µg/mL (≈ 154 µM) | 30 mg/L (≈ 36.1 µM) | 30 mg/L (≈ 36.1 µM) | 64 mg/L (≈ 76.9 µM) | 8 mg/L (≈ 9.62 µM) |  |
| Dihydropacidamycin D [Compound 3] | displayed the antibacterial spectrum of pacidamycin D | 16 µg/mL | 8 µg/mL | >512 µg/mL |  | 128 µg/mL | 2 µg/mL | 32 µg/mL | 512 µg/mL | 256 µg/mL |  |  |  |  |  | inhibition of E. coli translocase (in words) (E. coli translocase): inhibitor of E. coli translocase |
| Tetrahydropacidamycin D [Compound 4] | exhibited antibacterial activity | 8 µg/mL | 4 µg/mL | 512 µg/mL |  | 256 µg/mL | 2 µg/mL | 64 µg/mL | >512 µg/mL | >512 µg/mL |  |  |  |  |  | inhibition of translocase I (in words) (E. coli translocase; species of enzyme not given): inhibited translocase I |
| amphomycin [reference compound] |  | 64 µg/mL | 4 µg/mL | 512 µg/mL |  | 256 µg/mL | 4 µg/mL | 16 µg/mL | >512 µg/mL | >512 µg/mL |  |  |  |  |  | translocase inhibition (in words) [16]: translocase inhibitors; action on mammalian enzymes / lipid-linked saccharide formation (in words) [17]: also target mammalian enzymes |
| tunicamycin |  |  |  |  |  |  |  |  |  |  |  |  |  |  |  | translocase inhibition (in words) [16]: translocase inhibitors; action on mammalian enzymes / lipid-linked saccharide formation (in words) [17]: also target mammalian enzymes |
